Measured values: PubChem BioAssay AID2060903 (Molecular Pharmacology Branch, DTP, NCI, 2025)

Test system: 377384-186-R-J1-PDC complex spheroid viability
Test: Anticancer human tumor 377384-186-R-J1-PDC patient-derived pancreatic carcinoma cell line growth inhibition [RAS]
Settings: for IC50: curve of first compound; for viability, T/C: stronger effect = lower value
Excerpt: RAS pathway inhibitors in Combinations in Complex Spheroids
A high-throughput screen of multi-cell type tumor spheroids was designed to identify active combinations of RAS pathway inhibitors and targeted small molecules. Complex spheroids include a stromal component modeled by human endothelial cells (HUVEC) and fibroblasts modeled by human mesenchymal stem cells (MSCs). The concentration ranges selected for each drug and investigational agent were based upon clinically achievable concentrations if the clinical Cmax of the agent was known.
Compounds. The drugs and investigational agents: abemaciclib (NSC768073), cobimetinib (NSC768068), divarasib (GDC6063, NSC841802), docetaxel (NSC628503), GDC-1971 (RLY-1971, NSC841576), gemcitabine (NSC613327), inavolisib (NSC800729), ipatasertib (NSC767898), KB-0742 (NSC834161), MRTX-1133 (NSC836407), osimertinib (NSC779217), RMC-4630 (NSC839698), RMC-6236 (NSC851965), RMC-6291 (NSC852671), Ro-3306 (NSC812927), sapanisertib (NSC764658), SN-38 (NSC673596), staurosporine (NSC755774), SY5609 (NSC837396), and tovorafenib (DAY101, NSC766906), were obtained from the National Cancer Institute (NCI) Developmental Therapeutics Program Chemical Repository. The FDA-approved anticancer drug set is available from the NCI Developmental Therapeutics Program. […] The stock solutions were prepared in dimethyl sulfoxide (DMSO, Sigma-Aldrich, St. Louis, MO, cat. D2650) at 800-fold the tested concentration and stored at -70 degrees C prior to their use. All drugs and investigational agents were tested over a range starting from a high concentration at or near the clinical Cmax and decreasing in half-log increments. If the clinical Cmax for an agent had not been determined, the highest concentration tested was 10 microM.
Cell Culture. All cells were maintained in an incubator at 37 degrees C and 5% CO2 with 95% humidity. The PDC lines were cultured according to standard operating procedures established by the NCI PDMR. All PDCs were thawed and cultured in Matrigel-coated flasks prepared with a working solution of 1X Ham's F-12 nutrient mix, without supplementation (Invitrogen, Waltham, MA, cat. 11765054), 100 U/mL penicillin-streptomycin (Invitrogen, cat. 15140122), and 2.5% Matrigel (Corning Inc., Corning, NY, cat. 354248) for the first three passages. The 362531-283-R-J2-PDC and 782815-120-R-J1-PDC lines were cultured in 6C/Colon 1B media, which includes advanced DMEM/F-12 (Thermo Fisher Scientific, cat. 12634028), 10 mM HEPES (Thermo Fisher Scientific, cat. 15630080), 1X GlutaMAX supplement (Thermo Fisher Scientific, cat. 35050061), 0.1 mg/mL primocin (InvivoGen, San Diego, CA, cat. ant-pm-2), 10% defined fetal bovine serum, heat inactivated (HyClone Laboratories Inc., Logan, UT, cat. SH30070.03HI), 50% L-WRN conditioned media (ATCC, cat. CRL-3276), 1.25 mM N-Acetyl-L-cysteine (Sigma-Aldrich, cat. A9165), 10 mM nicotinamide (Sigma-Aldrich, cat. N0636), 1X B-27 supplement (Thermo Fisher Scientific, cat. 17504044), 1X N-2 supplement (Thermo Fisher Scientific, cat. 17502048), 50 ng/mL human EGF (Thermo Fisher Scientific, cat. PHG0311), and 10 microM Y-27632 dihydrochloride (Tocris Bioscience, cat. 1254). The K12877-001-R-J1-PDC line was cultured in 6I media, which includes all 6C/Colon 1B media plus 10 ng/mL human FGF-10 (PeproTech, cat. 100-26), 1 ng/mL human FGF-2 (PeproTech, cat. 100-18B), 1 µM prostaglandin E2 (Tocris Bioscience, cat. 2296), […] hydrocortisone (Sigma-Aldrich, cat. H4001), and […] bovine insulin (Sigma-Aldrich, cat. I6634). The K86415-001-R-J1-PDC line was cultured in 6D media, which includes all 6C/Colon 1B media components minus the L-WRN conditioned media. The 485176-168-R4-J1-PDC was cultured in PANC media, which includes all 6C/Colon 1B media plus 100 ng/mL human FGF-10 (PeproTech, cat. 100-26), 500 nM SB-431542 (Selleckchem, cat. S1067), and 10 nM gastrin (Tocris Bioscience, cat. 3006). […]
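Note: spheroids exposed to compounds for seven days before readout.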

## CC(Nc1ccc2c(c1)OCCn1cc(N3C(=O)OCC3C(F)F)nc1-2)C(N)=O (centres undefined) + C=CC(=O)N1CCN(c2nc(OCC3CCCN3C)nc3c(F)c(-c4nc(N)cc(C)c4C(F)(F)F)c(Cl)cc23)C(C)C1
Second compound 0.00316 µM
  IC50: 739 nM
Second compound 0.01 µM
  IC50: 575 nM
Second compound 0.0316 µM
  IC50: 443 nM
Second compound 0.1 µM
  IC50: 775 nM
Second compound 0.316 µM
  IC50: 255 nM
Second compound 1 µM
  IC50: 647 nM
Second compound 0.00316 µM, first compound 0.0316 µM
  viability, T/C: 73.4%
Second compound 0.00316 µM, first compound 0.1 µM
  viability, T/C: 72.2%
Second compound 0.00316 µM, first compound 0.316 µM
  viability, T/C: 52.8%
Second compound 0.00316 µM, first compound 1 µM
  viability, T/C: 48.1%
Second compound 0.00316 µM, first compound 3.16 µM
  viability, T/C: 38.4%
Second compound 0.00316 µM, first compound 10 µM
  viability, T/C: 28.4%
Second compound 0.01 µM, first compound 0.0316 µM
  viability, T/C: 76.8%
Second compound 0.01 µM, first compound 0.1 µM
  viability, T/C: 63.5%
Second compound 0.01 µM, first compound 0.316 µM
  viability, T/C: 54.8%
Second compound 0.01 µM, first compound 1 µM
  viability, T/C: 46.6%
Second compound 0.01 µM, first compound 3.16 µM
  viability, T/C: 37.9%
Second compound 0.01 µM, first compound 10 µM
  viability, T/C: 32.8%
Second compound 0.0316 µM, first compound 0.0316 µM
  viability, T/C: 86.2%
Second compound 0.0316 µM, first compound 0.1 µM
  viability, T/C: 68.2%
Second compound 0.0316 µM, first compound 0.316 µM
  viability, T/C: 55.7%
Second compound 0.0316 µM, first compound 1 µM
  viability, T/C: 40.3%
Second compound 0.0316 µM, first compound 3.16 µM
  viability, T/C: 34.2%
Second compound 0.0316 µM, first compound 10 µM
  viability, T/C: 32.1%
Second compound 0.1 µM, first compound 0.0316 µM
  viability, T/C: 78.9%
Second compound 0.1 µM, first compound 0.1 µM
  viability, T/C: 73.3%
Second compound 0.1 µM, first compound 0.316 µM
  viability, T/C: 60.5%
Second compound 0.1 µM, first compound 1 µM
  viability, T/C: 45%
Second compound 0.1 µM, first compound 3.16 µM
  viability, T/C: 40.1%
Second compound 0.1 µM, first compound 10 µM
  viability, T/C: 30.6%
Second compound 0.316 µM, first compound 0.0316 µM
  viability, T/C: 89.7%
Second compound 0.316 µM, first compound 0.1 µM
  viability, T/C: 63%
Second compound 0.316 µM, first compound 0.316 µM
  viability, T/C: 43.2%
Second compound 0.316 µM, first compound 1 µM
  viability, T/C: 44.8%
Second compound 0.316 µM, first compound 3.16 µM
  viability, T/C: 33.5%
Second compound 0.316 µM, first compound 10 µM
  viability, T/C: 32%
Second compound 1 µM, first compound 0.0316 µM
  viability, T/C: 79.2%
Second compound 1 µM, first compound 0.1 µM
  viability, T/C: 68.2%
Second compound 1 µM, first compound 0.316 µM
  viability, T/C: 53.5%
Second compound 1 µM, first compound 1 µM
  viability, T/C: 48.4%
Second compound 1 µM, first compound 3.16 µM
  viability, T/C: 38%
Second compound 1 µM, first compound 10 µM
  viability, T/C: 32.2%

## C=CC(=O)N1CCN(c2nc(OCC3CCCN3C)nc3c(F)c(-c4nc(N)cc(C)c4C(F)(F)F)c(Cl)cc23)C(C)C1 (centres undefined) + CCn1c(-c2cc(N3CCN(C)CC3)cnc2C(C)OC)c2c3cc(ccc31)-c1csc(n1)CC(NC(=O)C1CC1C)C(=O)N1CCCC(N1)C(=O)OCC(C)(C)C2
Second compound 0.000949 µM
  IC50: > 1000 nM
Second compound 0.003 µM
  IC50: < 3.16 nM
Second compound 0.00949 µM
  IC50: < 3.16 nM
Second compound 0.03 µM
  IC50: < 3.16 nM
Second compound 0.0949 µM
  IC50: < 3.16 nM
Second compound 0.3 µM
  IC50: < 3.16 nM
Second compound 0.000949 µM, first compound 0.00316 µM
  viability, T/C: 57.6%
Second compound 0.000949 µM, first compound 0.01 µM
  viability, T/C: 48.5%
Second compound 0.000949 µM, first compound 0.0316 µM
  viability, T/C: 58%
Second compound 0.000949 µM, first compound 0.1 µM
  viability, T/C: 62.1%
Second compound 0.000949 µM, first compound 0.316 µM
  viability, T/C: 61.6%
Second compound 0.000949 µM, first compound 1 µM
  viability, T/C: 48%
Second compound 0.003 µM, first compound 0.00316 µM
  viability, T/C: 19.5%
Second compound 0.003 µM, first compound 0.01 µM
  viability, T/C: 19.7%
Second compound 0.003 µM, first compound 0.0316 µM
  viability, T/C: 21.2%
Second compound 0.003 µM, first compound 0.1 µM
  viability, T/C: 19.3%
Second compound 0.003 µM, first compound 0.316 µM
  viability, T/C: 27.7%
Second compound 0.003 µM, first compound 1 µM
  viability, T/C: 22.1%
Second compound 0.00949 µM, first compound 0.00316 µM
  viability, T/C: 5.16%
Second compound 0.00949 µM, first compound 0.01 µM
  viability, T/C: 6.78%
Second compound 0.00949 µM, first compound 0.0316 µM
  viability, T/C: 4.26%
Second compound 0.00949 µM, first compound 0.1 µM
  viability, T/C: 6.19%
Second compound 0.00949 µM, first compound 0.316 µM
  viability, T/C: 8.67%
Second compound 0.00949 µM, first compound 1 µM
  viability, T/C: 5.16%
Second compound 0.03 µM, first compound 0.00316 µM
  viability, T/C: 2.65%
Second compound 0.03 µM, first compound 0.01 µM
  viability, T/C: 2.3%
Second compound 0.03 µM, first compound 0.0316 µM
  viability, T/C: 2.75%
Second compound 0.03 µM, first compound 0.1 µM
  viability, T/C: 3.22%
Second compound 0.03 µM, first compound 0.316 µM
  viability, T/C: 2.42%
Second compound 0.03 µM, first compound 1 µM
  viability, T/C: 1.95%
Second compound 0.0949 µM, first compound 0.00316 µM
  viability, T/C: 2.35%
Second compound 0.0949 µM, first compound 0.01 µM
  viability, T/C: 2.29%
Second compound 0.0949 µM, first compound 0.0316 µM
  viability, T/C: 2.53%
Second compound 0.0949 µM, first compound 0.1 µM
  viability, T/C: 2.6%
Second compound 0.0949 µM, first compound 0.316 µM
  viability, T/C: 2.41%
Second compound 0.0949 µM, first compound 1 µM
  viability, T/C: 1.71%
Second compound 0.3 µM, first compound 0.00316 µM
  viability, T/C: 2.58%
Second compound 0.3 µM, first compound 0.01 µM
  viability, T/C: 2.04%
Second compound 0.3 µM, first compound 0.0316 µM
  viability, T/C: 1.61%
Second compound 0.3 µM, first compound 0.1 µM
  viability, T/C: 1.52%
Second compound 0.3 µM, first compound 0.316 µM
  viability, T/C: 1.71%
Second compound 0.3 µM, first compound 1 µM
  viability, T/C: 1.54%
